From article doi:10.1101/2025.07.11.664310v1 (biorxiv, 2025)

Key:
hOGG1 = hOGG1 (Homo sapiens, UniProt O15527); assay: Cas12a-coupled fluorescence assay, 8-oxoG DNA hairpin transducer; format: biochemical
Fpg = target: T1, Fpg (Escherichia coli, UniProt P05523); assay: as above; format: biochemical
T1 sequence (P05523 2-269): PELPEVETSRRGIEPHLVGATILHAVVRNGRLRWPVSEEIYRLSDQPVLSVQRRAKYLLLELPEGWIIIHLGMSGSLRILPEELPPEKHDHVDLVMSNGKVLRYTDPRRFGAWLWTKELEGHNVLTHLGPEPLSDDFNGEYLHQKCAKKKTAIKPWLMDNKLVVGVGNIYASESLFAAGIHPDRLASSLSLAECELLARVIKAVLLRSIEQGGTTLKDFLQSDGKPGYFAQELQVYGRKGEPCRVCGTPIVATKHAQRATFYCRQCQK

Chain of hOGG1 (O15527 whole entry): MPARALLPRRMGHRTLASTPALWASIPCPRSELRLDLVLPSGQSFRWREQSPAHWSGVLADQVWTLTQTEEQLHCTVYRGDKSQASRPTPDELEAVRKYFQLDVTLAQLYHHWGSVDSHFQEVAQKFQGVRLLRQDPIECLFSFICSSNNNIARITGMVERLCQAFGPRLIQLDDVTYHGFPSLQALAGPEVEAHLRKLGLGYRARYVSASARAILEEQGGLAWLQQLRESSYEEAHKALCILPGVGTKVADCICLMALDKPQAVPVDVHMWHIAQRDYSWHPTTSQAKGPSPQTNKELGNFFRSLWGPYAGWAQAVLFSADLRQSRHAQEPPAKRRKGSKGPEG

Row | Compound | IC50 (hOGG1) [µM] | IC50 (Fpg) [µM]
1 | O=c1[nH]c2[nH]c(=S)[nH]c(=O)c2[nH]1 [Inh#4, Mercapto-6,8-purinediol] | 11.9 ± 0.4 | 70.3 ± 0.7
2 | NNC(=O)c1sc2cccc(Cl)c2c1Cl [Inh#1, O8] | 2.5 ± 0.5 | –
